According to PubChem BioAssay (NCI):
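Cultured in 96-well plates, cells were exposed to test compound for 48 hours across five concentrations. TGI is the concentration that stops growth completely.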

Experiments:
Assay in all cases: growth of human tumour cells (NCI), 48 h
SK-MEL-2 melanoma = test system: SK-MEL-2 melanoma
KM12 colon = test system: KM12 colon
NCI-H522 lung = test system: NCI-H522 lung
NCI-H226 lung = test system: NCI-H226 lung
SW-620 colon = test system: SW-620 colon
EKVX NSCLC = test system: EKVX NSCLC
A498 renal = test system: A498 renal
K-562 leukemia = test system: K-562 leukemia
SF-295 CNS = test system: SF-295 CNS
UO-31 renal = test system: UO-31 renal
HCC-2998 colon = test system: HCC-2998 colon
NCI-H460 lung = test system: NCI-H460 lung
RPMI-8226 leukemia = test system: RPMI-8226 leukemia
SK-MEL-5 melanoma = test system: SK-MEL-5 melanoma
HCT-15 colon = test system: HCT-15 colon
SNB-19 CNS = test system: SNB-19 CNS
OVCAR-4 ovarian = test system: OVCAR-4 ovarian
SF-539 CNS = test system: SF-539 CNS
M19-MEL melanoma = test system: M19-MEL melanoma
COLO 205 colon = test system: COLO 205 colon
TK-10 renal = test system: TK-10 renal
M14 melanoma = test system: M14 melanoma
DMS 273 small cell lung = test system: DMS 273 small cell lung
CAKI-1 renal = test system: CAKI-1 renal
NCI-H23 lung = test system: NCI-H23 lung
DMS 114 small cell lung = test system: DMS 114 small cell lung
U251 CNS = test system: U251 CNS
KM20L2 colon = test system: KM20L2 colon
IGROV1 ovarian = test system: IGROV1 ovarian
ACHN renal = test system: ACHN renal
786-0 renal = test system: 786-0 renal
RXF 393 renal = test system: RXF 393 renal
UACC-62 melanoma = test system: UACC-62 melanoma
HOP-18 NSCLC = test system: HOP-18 NSCLC
OVCAR-5 ovarian = test system: OVCAR-5 ovarian
HOP-62 NSCLC = test system: HOP-62 NSCLC
OVCAR-8 ovarian = test system: OVCAR-8 ovarian
SNB-75 CNS = test system: SNB-75 CNS
HT29 colon = test system: HT29 colon
HOP-92 NSCLC = test system: HOP-92 NSCLC
MALME-3M melanoma = test system: MALME-3M melanoma
OVCAR-3 ovarian = test system: OVCAR-3 ovarian
SNB-78 CNS = test system: SNB-78 CNS
LOX IMVI melanoma = test system: LOX IMVI melanoma
LXFL 529 NSCLC = test system: LXFL 529 NSCLC
SK-MEL-28 melanoma = test system: SK-MEL-28 melanoma
UACC-257 melanoma = test system: UACC-257 melanoma
SN12C renal = test system: SN12C renal
SK-OV-3 ovarian = test system: SK-OV-3 ovarian
HCT-116 colon = test system: HCT-116 colon
SF-268 CNS = test system: SF-268 CNS
CCRF-CEM leukemia = test system: CCRF-CEM leukemia
DLD-1 colon = test system: DLD-1 colon
HL-60(TB) leukemia = test system: HL-60(TB) leukemia
A549 NSCLC = test system: A549 NSCLC
MOLT-4 leukemia = test system: MOLT-4 leukemia
SR leukemia = test system: SR leukemia

Measured: TGI

NC(=S)N/N=C1\C(=O)N(CCc2ccccc2)C(=O)C1C(=O)NCCc1ccccc1 (configuration not stated)
not listed: CCRF-CEM leukemia | DLD-1 colon | HL-60(TB) leukemia | A549 NSCLC | MOLT-4 leukemia | SR leukemia
> 100 µM: all other assays above

CC(C)[C@H]1CO[C@@H]2O[C@H](C)CC(=O)N21
not listed: A498 renal | HCC-2998 colon | DMS 273 small cell lung | OVCAR-5 ovarian | SNB-78 CNS | LOX IMVI melanoma
> 100 µM: all other assays above
